Source: patent US8030336B2, “Nicotinamide-based kinase inhibitors” (YM Biosciences Australia Pty Ltd, priority 2002, dated 2011)

Legend:
Format in all cases: biochemical
human JAK2 = molecular target: T1, human JAK2 (Homo sapiens, UniProt O60674); test: JAK2 kinase assay (ELISA or Alphascreen); conditions: read-out: Jak2 inhibition of enzyme activity
T1 construct: The kinase domain of human JAK2 was amplified from U937mRNA; His tag (from the pFastBac HTc vector) (N); made in house; host or cells: baculovirus; Sf9 for virus, High Five insect cells for production
Excerpt: The kinase domain of human JAK2 was amplified from U937mRNA using the polymerase chain reaction with the following primers: […]
JAK2 PCR products were doped into the pFastBac HTc expression vector (Gibco) via the Sal I and Not I sites. The JAK2 plasmid was than transformed into competent DH10Bac cells (Gibco), and the recombinant baculovirus produced prepared for transfection into Sf9 insect cells.
(§1) Baculovirus preparations from each of the JAK family members were infected into five liters of High Five cells (Invitrogen) grown in High Five serum free medium (Invitrogen) to a cell density of approximately 1-2×10^6 cells/ml. Cells are infected with virus at a MOI of 0.8-3.0. Cells were harvested and lysed. JAK kinase domains were purified by affinity chromatography on a Probond (Invitrogen) nickel chelate affinity column.
(§2) Kinase assays were performed in a 96 well capture-based ELISA assay or in 384 well Optiplates (Packard) using an Alphascreen Protein Tyrosine Kinase kit. In either case using approximately 1.5 μg of affinity purified PTK domain in the presence of 50 mM HEPES, pH 7.5, 10 mM MgCl2, 150 mM NaCl and 10 μM-1 mM ATP. The biotinylated substrate biotin-EGPWLEEEEEAYGWMDF-NH2 (SEQ ID NO:9) (final concentration 5 μM) was used as substrate. In the ELISA assay tyrosine phosphorylation was quantitated following transfer to an avidin coated ELISA plate using peroxidase-linked anti-phosphotyrosine antibody PY20. In the Alphascreen assay, Alphascreen phosphotyrosine acceptor beads followed by streptavidin donor beads were added under subdued light. The ELISA plates were read on a BMG Fluorostar, the Alphascreen plates were read on a Packard Fusion Alpha. Inhibitors were added to the assays fifteen minutes prior to the addition of ATP. Inhibitors were added in aqueous […] concentrations never exceeding 1%.

fes = fes (Homo sapiens, UniProt P07332); test: fes kinase assay (ELISA or Alphascreen); conditions: read-out: fes inhibition of enzyme activity
Description: as §2

Zap70 = molecular target: T2, Zap70 (Homo sapiens, UniProt P43403); test: Zap70 kinase assay (ELISA or Alphascreen); conditions: read-out: Zap70 inhibition of enzyme activity
T2 sequence (P43403 338-600 limits assumed): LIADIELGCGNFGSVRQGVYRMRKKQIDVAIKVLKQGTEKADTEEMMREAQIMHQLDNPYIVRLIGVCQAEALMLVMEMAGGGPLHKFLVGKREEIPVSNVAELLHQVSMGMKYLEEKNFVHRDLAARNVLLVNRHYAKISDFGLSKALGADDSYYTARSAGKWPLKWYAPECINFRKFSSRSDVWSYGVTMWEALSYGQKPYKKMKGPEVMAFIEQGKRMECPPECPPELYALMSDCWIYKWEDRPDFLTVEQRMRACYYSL
Description: as §2

hck = hck (Homo sapiens, UniProt P08631); test: hck kinase assay (ELISA or Alphascreen); conditions: read-out: hck inhibition of enzyme activity
Description: as §2

abl = molecular target: T3, abl (Homo sapiens, UniProt P00519); test: abl kinase assay (ELISA or Alphascreen); conditions: read-out: abl inhibition of enzyme activity
T3 sequence (P00519 242-493 limits assumed): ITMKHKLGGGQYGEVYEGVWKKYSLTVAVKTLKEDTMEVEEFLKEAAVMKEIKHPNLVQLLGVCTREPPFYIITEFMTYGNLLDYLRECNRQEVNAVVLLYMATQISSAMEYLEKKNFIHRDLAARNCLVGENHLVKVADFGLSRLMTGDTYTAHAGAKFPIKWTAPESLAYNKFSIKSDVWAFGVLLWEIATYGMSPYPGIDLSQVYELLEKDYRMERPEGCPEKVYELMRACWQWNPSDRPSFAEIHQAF
Description: as §2

fms = molecular target: T4, fms (Homo sapiens, UniProt P07333); test: fms kinase assay (ELISA or Alphascreen); conditions: read-out: fms inhibition of enzyme activity
T4 sequence (P07333 582-910 limits assumed): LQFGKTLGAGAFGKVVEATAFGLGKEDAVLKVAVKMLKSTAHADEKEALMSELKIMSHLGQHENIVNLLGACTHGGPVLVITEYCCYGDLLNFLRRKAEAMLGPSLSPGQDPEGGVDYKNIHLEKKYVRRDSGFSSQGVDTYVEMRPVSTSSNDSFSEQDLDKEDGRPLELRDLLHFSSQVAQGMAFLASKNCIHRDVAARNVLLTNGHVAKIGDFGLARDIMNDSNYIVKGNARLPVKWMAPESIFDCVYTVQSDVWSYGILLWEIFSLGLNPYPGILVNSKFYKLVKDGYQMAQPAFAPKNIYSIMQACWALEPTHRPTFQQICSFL
Description: as §2

human JAK3 = molecular target: T5, human JAK3 (Homo sapiens, UniProt P52333); test: JAK3 kinase assay (ELISA or Alphascreen); conditions: read-out: Jak3 inhibition of enzyme activity
T5 construct: The kinase domain of human JAK3 was amplified from U937mRNA; His tag (from the pFastBac HTb vector) (N); made in house; host or cells: baculovirus; Sf9 for virus, High Five insect cells for production
Excerpt: The kinase domain of human JAK3 was amplified from U937mRNA using the polymerase chain reaction with the following primers: […]
JAK3 PCR products were cloned into the pFastBac HTb expression vector (Gibco) via the Xho I and Kpn I sites. The JAK3 plasmid was then transformed into competent DH10Bac cells (Gibco), and the recombinant baculovirus produced prepared for transfection into Sf9 insect cells.
as §1, §2

Chain of hck (P08631 262-515 limits assumed, species assumed): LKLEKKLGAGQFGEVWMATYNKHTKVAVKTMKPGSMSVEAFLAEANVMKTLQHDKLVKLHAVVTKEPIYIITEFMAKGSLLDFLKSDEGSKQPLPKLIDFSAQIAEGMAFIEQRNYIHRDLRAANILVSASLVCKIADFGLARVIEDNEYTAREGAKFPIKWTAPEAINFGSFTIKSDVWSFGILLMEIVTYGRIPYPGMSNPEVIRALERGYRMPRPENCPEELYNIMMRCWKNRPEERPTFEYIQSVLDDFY
Chain of fes (P07332 561-822 limits assumed, species assumed): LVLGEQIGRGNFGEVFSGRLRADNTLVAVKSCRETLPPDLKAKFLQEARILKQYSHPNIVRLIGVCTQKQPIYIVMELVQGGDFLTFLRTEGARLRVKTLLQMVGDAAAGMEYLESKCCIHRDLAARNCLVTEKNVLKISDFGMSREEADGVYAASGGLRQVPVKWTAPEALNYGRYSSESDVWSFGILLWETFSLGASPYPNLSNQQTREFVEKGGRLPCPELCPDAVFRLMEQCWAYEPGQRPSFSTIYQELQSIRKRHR
T5 sequence (P52333 822-1111 limits assumed): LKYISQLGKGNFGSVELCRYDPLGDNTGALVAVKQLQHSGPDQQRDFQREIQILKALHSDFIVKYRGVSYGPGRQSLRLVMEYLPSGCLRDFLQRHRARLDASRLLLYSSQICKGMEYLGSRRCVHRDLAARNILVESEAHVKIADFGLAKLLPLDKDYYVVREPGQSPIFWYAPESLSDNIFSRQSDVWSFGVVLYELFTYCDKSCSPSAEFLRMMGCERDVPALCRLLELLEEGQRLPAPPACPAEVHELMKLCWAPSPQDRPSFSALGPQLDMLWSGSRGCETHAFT
T1 sequence (O60674 849-1124 limits assumed): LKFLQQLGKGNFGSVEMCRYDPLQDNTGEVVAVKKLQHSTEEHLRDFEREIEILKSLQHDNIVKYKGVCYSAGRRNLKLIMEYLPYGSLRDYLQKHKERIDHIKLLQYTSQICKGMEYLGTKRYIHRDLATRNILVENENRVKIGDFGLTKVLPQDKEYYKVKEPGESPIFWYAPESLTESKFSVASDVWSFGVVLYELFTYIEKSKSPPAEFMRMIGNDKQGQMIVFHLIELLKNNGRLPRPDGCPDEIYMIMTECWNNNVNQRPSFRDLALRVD

Row | Structure (SMILES) | inhibition at 10 µM (human JAK2) | inhibition at 10 µM (fes) | inhibition at 10 µM (Zap70) | inhibition at 10 µM (hck) | inhibition at 10 µM (abl) | inhibition at 10 µM (fms) | inhibition at 10 µM (human JAK3)
1 | C[C@@H](NC(=O)c1cncc(-c2ccc(O)cc2)c1)c1ccccc1 | < 50% | < 50% | < 50% | < 50% | < 50% | – | –
2 | O=C(NCCc1ccccc1)c1cncc(-c2ccc(O)cc2)c1 | < 50% | < 50% | < 50% | < 50% | – | < 50% | < 50%
3 | CN(Cc1ccccc1)C(=O)c1cncc(-c2ccc(O)cc2)c1 | < 50% | < 50% | < 50% | < 50% | – | < 50% | < 50%
4 | Cc1ccccc1NC(=O)c1cncc(-c2ccc(O)cc2)c1 | < 50% | < 50% | < 50% | ≥ 50% | – | ≥ 50% | < 50%
5 | COc1cc(CNC(=O)c2cncc(-c3cc(C)c(O)c(C)c3)c2)cc(OC)c1 | < 50% | < 50% | < 50% | < 50% | – | ≥ 50% | < 50%
6 | Cc1ccc(F)cc1NC(=O)c1cncc(-c2cc(C)c(O)c(C)c2)c1 | < 50% | – | < 50% | ≥ 50% | – | ≥ 50% | < 50%
7 | Cc1cc(-c2cncc(C(=O)NC(C)CCc3ccccc3)c2)cc(C)c1O (stereo not shown) | < 50% | < 50% | < 50% | < 50% | – | < 50% | < 50%
8 | COc1cc(-c2cncc(C(=O)NCc3cccc(F)c3)c2)c(Cl)c(OC)c1OC | < 50% | < 50% | < 50% | – | < 50% | < 50% | < 50%
9 | COc1cc(-c2cncc(C(=O)NC(C)C)c2)c(Cl)c(OC)c1OC | < 50% | < 50% | < 50% | < 50% | – | < 50% | < 50%
10 | COc1cc(-c2cncc(C(=O)NCCc3ccccc3)c2)c(Cl)c(OC)c1OC | < 50% | < 50% | < 50% | < 50% | – | < 50% | < 50%
11 | COc1cc(-c2cncc(C(=O)Nc3ccc(N4CCOCC4)cc3)c2)c(Cl)c(OC)c1OC | < 50% | < 50% | < 50% | – | < 50% | < 50% | < 50%
12 | COc1cc(-c2cncc(C(=O)Nc3ccc(F)cc3C)c2)c(Cl)c(OC)c1OC | < 50% | < 50% | < 50% | ≥ 50% | – | ≥ 50% | < 50%
13 | COc1cc(NC(=O)c2cncc(-c3cc(OC)c(OC)c(OC)c3Cl)c2)cc(OC)c1OC | < 50% | < 50% | < 50% | < 50% | – | < 50% | < 50%
14 | C[C@@H](NC(=O)c1cncc(-c2ccc3c(c2)OCO3)c1)c1ccccc1 | < 50% | < 50% | < 50% | < 50% | – | < 50% | < 50%
15 | C[C@H](NC(=O)c1cncc(-c2ccc3c(c2)OCO3)c1)c1ccccc1 | < 50% | < 50% | < 50% | < 50% | – | < 50% | < 50%
16 | COc1cc(CNC(=O)c2cncc(-c3ccc4c(c3)OCO4)c2)cc(OC)c1 | < 50% | < 50% | < 50% | < 50% | < 50% | – | –
17 | COc1ccc(CNC(=O)c2cncc(-c3ccc4c(c3)OCO4)c2)cc1 | < 50% | < 50% | < 50% | < 50% | – | < 50% | < 50%
18 | COc1ccc(NC(=O)c2cncc(-c3ccc4c(c3)OCO4)c2)c(OC)c1 | < 50% | < 50% | – | < 50% | – | < 50% | < 50%
19 | O=C(NCc1ccc(N2CCOCC2)cc1)c1cncc(-c2cccs2)c1 | < 50% | < 50% | < 50% | < 50% | < 50% | – | –
20 | O=C(NCc1ccc(Cl)c(Cl)c1)c1cncc(-c2cccs2)c1 | < 50% | < 50% | < 50% | < 50% | – | < 50% | < 50%
21 | CC(C)C(CO)NC(=O)c1cncc(-c2cccs2)c1 (stereo not shown) | < 50% | < 50% | < 50% | < 50% | – | < 50% | < 50%
22 | O=C(NCc1ccncc1)c1cncc(-c2cccs2)c1 | < 50% | < 50% | < 50% | < 50% | – | < 50% | < 50%
23 | Cc1ccc(C)c(NC(=O)c2cncc(-c3ccc(F)cc3)c2)c1 | < 50% | < 50% | < 50% | < 50% | – | < 50% | < 50%
24 | COc1cccc(-c2cncc(C(=O)NCc3cccnc3)c2)c1 | < 50% | < 50% | ≥ 50% | < 50% | – | < 50% | < 50%
25 | COc1cccc([C@H](C)NC(=O)c2cncc(-c3ccc(O)c(OC)c3)c2)c1 | < 50% | < 50% | < 50% | < 50% | – | < 50% | < 50%
26 | COc1cc(-c2cncc(C(=O)Nc3ccccc3C)c2)ccc1O | < 50% | < 50% | < 50% | ≥ 50% | – | < 50% | < 50%
